# Data taken from ChEMBL document CHEMBL5303573, “Mapping human microbiome drug metabolism by gut bacteria and their genes” (Nature, 2019).
# Tests used:
# [1] = The drug is tested on Bifidobacterium breve strain: DSM20213 for biotransformation. The drug concentrations were measured before and after a 12-h incubation by liquid-chromatography-coupled mass spectrometry (LC–MS); conditions: 2 µM
# [2] = The drug is tested on Eggerthella lenta strain: ATCC25559 for biotransformation. The drug concentrations were measured before and after a 12-h incubation by liquid-chromatography-coupled mass spectrometry (LC–MS); conditions: 2 µM
# [3] = The drug is tested on Alistipes indistinctus strain: DSM22520 for biotransformation. The drug concentrations were measured before and after a 12-h incubation by liquid-chromatography-coupled mass spectrometry (LC–MS); conditions: 2 µM
# [4] = The drug is tested on Bacteroides cellulosilyticus strain: DSM14838 for biotransformation. The drug concentrations were measured before and after a 12-h incubation by liquid-chromatography-coupled mass spectrometry (LC–MS); conditions: 2 µM
# [5] = The drug is tested on Bacteroides coprophilus strain: DSM18228 for biotransformation. The drug concentrations were measured before and after a 12-h incubation by liquid-chromatography-coupled mass spectrometry (LC–MS); conditions: 2 µM
# [6] = The drug is tested on Bacteroides fragilis strain: HMW615 for biotransformation. The drug concentrations were measured before and after a 12-h incubation by liquid-chromatography-coupled mass spectrometry (LC–MS); conditions: 2 µM
# [7] = The drug is tested on Bacteroides ovatus strain: ATCC8483 for biotransformation. The drug concentrations were measured before and after a 12-h incubation by liquid-chromatography-coupled mass spectrometry (LC–MS); conditions: 2 µM
# [8] = The drug is tested on Bacteroides uniformis strain: ATCC8492 for biotransformation. The drug concentrations were measured before and after a 12-h incubation by liquid-chromatography-coupled mass spectrometry (LC–MS); conditions: 2 µM
# [9] = The drug is tested on Bacteroides vulgatus strain: ATCC8482 for biotransformation. The drug concentrations were measured before and after a 12-h incubation by liquid-chromatography-coupled mass spectrometry (LC–MS); conditions: phocaeicola vulgatus, 2 µM
# [10] = The drug is tested on Bacteroides xylanisolvens strain: DSM18836 for biotransformation. The drug concentrations were measured before and after a 12-h incubation by liquid-chromatography-coupled mass spectrometry (LC–MS); conditions: 2 µM
# [11] = The drug is tested on Clostridium asparagiforme strain: DSM15981 for biotransformation. The drug concentrations were measured before and after a 12-h incubation by liquid-chromatography-coupled mass spectrometry (LC–MS); assay type: ADME; set-up: dose 2 uM, timepoint 0 vs 12 hours; conditions: enterocloster asparagiformis, 2 µM
# [12] = The drug is tested on Dorea formicigenerans strain: ATCC27755 for biotransformation. The drug concentrations were measured before and after a 12-h incubation by liquid-chromatography-coupled mass spectrometry (LC–MS); conditions: 2 µM
# [13] = The drug is tested on Eubacterium hallii strain: DSM3353 for biotransformation. The drug concentrations were measured before and after a 12-h incubation by liquid-chromatography-coupled mass spectrometry (LC–MS); conditions: anaerobutyricum hallii, 2 µM
# [14] = The drug is tested on Ruminococcus gnavus strain: ATCC29149 for biotransformation. The drug concentrations were measured before and after a 12-h incubation by liquid-chromatography-coupled mass spectrometry (LC–MS); conditions: mediterraneibacter gnavus, 2 µM
# [15] = The drug is tested on Ruminococcus lactaris strain: ATCC29176 for biotransformation. The drug concentrations were measured before and after a 12-h incubation by liquid-chromatography-coupled mass spectrometry (LC–MS); conditions: 2 µM
# [16] = The drug is tested on Providencia rettgeri strain: DSM1131 for biotransformation. The drug concentrations were measured before and after a 12-h incubation by liquid-chromatography-coupled mass spectrometry (LC–MS); assay type: ADME; set-up: dose 2 uM, timepoint 0 vs 12 hours; conditions: 2 µM
# [17] = bifidobacterium adolescentis, 12 h, 2 µM
# Description: The drug is tested on Bifidobacterium adolescentis strain: ATCC 15703 for biotransformation. The drug concentrations were measured before and after a 12-h incubation by liquid-chromatography-coupled mass spectrometry (LC–MS)
# [18] = bacteroides intestinalis, 12 h, 2 µM
# Description: The drug is tested on Bacteroides intestinalis strain: DSM17393 for biotransformation. The drug concentrations were measured before and after a 12-h incubation by liquid-chromatography-coupled mass spectrometry (LC–MS)
# [19] = bacteroides thetaiotaomicron, 12 h, 2 µM
# Description: The drug is tested on Bacteroides thetaiotaomicron strain: VPI-5482 for biotransformation. The drug concentrations were measured before and after a 12-h incubation by liquid-chromatography-coupled mass spectrometry (LC–MS)
# [20] = anaerostipes sp., 12 h, 2 µM
# Description: The drug is tested on Anaerostipes sp. strain: fecal isolate for biotransformation. The drug concentrations were measured before and after a 12-h incubation by liquid-chromatography-coupled mass spectrometry (LC–MS)
SMILES,Bacterial Biotransformation [1],Bacterial Biotransformation [2],Bacterial Biotransformation [3],Bacterial Biotransformation [4],Bacterial Biotransformation [5],Bacterial Biotransformation [6],Bacterial Biotransformation [7],Bacterial Biotransformation [8],Bacterial Biotransformation [9],Bacterial Biotransformation [10],Bacterial Biotransformation [11],Bacterial Biotransformation [12],Bacterial Biotransformation [13],Bacterial Biotransformation [14],Bacterial Biotransformation [15],Bacterial Biotransformation [16],Bacterial Biotransformation [17],Bacterial Biotransformation [18],Bacterial Biotransformation [19],Bacterial Biotransformation [20]
CCN(CC)CCOCCOC(=O)C1(c2ccccc2)CCCC1.O=C(O)CC(O)(CC(=O)O)C(=O)O [CARBETAPENTANE CITRATE],Compound metabolized,Compound metabolized,Compound metabolized,Compound metabolized,Compound metabolized,Compound NOT metabolized,Compound metabolized,Compound metabolized,Compound metabolized,Compound metabolized,Compound metabolized,Compound metabolized,Compound metabolized,Compound metabolized,Compound NOT metabolized,Compound metabolized,Compound metabolized,Compound metabolized,Compound metabolized,Compound metabolized
CC[C@H](C)C(=O)O[C@H]1C[C@@H](C)C=C2C=C[C@H](C)[C@H](CC[C@@H]3C[C@@H](O)CC(=O)O3)[C@H]21 [LOVASTATIN],Compound metabolized,Compound NOT metabolized,Compound NOT metabolized,Compound metabolized,Compound NOT metabolized,Compound metabolized,Compound NOT metabolized,Compound metabolized,Compound metabolized,Compound NOT metabolized,Compound metabolized,Compound NOT metabolized,Compound metabolized,Compound NOT metabolized,Compound NOT metabolized,Compound metabolized,Compound metabolized,Compound metabolized,Compound NOT metabolized,Compound NOT metabolized
CCc1oc2ccccc2c1C(=O)c1cc(Br)c(O)c(Br)c1 [BENZBROMARONE],Compound metabolized,Compound NOT metabolized,Compound NOT metabolized,Compound NOT metabolized,Compound NOT metabolized,Compound NOT metabolized,Compound NOT metabolized,Compound NOT metabolized,Compound NOT metabolized,Compound NOT metabolized,Compound NOT metabolized,Compound NOT metabolized,Compound NOT metabolized,Compound NOT metabolized,Compound NOT metabolized,Compound NOT metabolized,Compound NOT metabolized,Compound NOT metabolized,Compound NOT metabolized,Compound NOT metabolized
